{"source": "patent US12226410B2", "about": "“Methods for enhancing cellular clearance of pathological molecules via activation of the cellular protein ykt6” (NORTHWESTERN UNIVERSITY, priority 2019, dated 2025)", "key": {"[1]": {"system": "H4 a-syn cells", "assay": "Immunofluorescence of GCase and LAMP2A in FTI-treated H4 a-syn cells", "assay_type": "cell-based, human", "details": "5 nM FTI", "experimental": "FIGS. 5A, 5B, 5C, 5D, 5E, 5F, and 5G. Reducing farnesyl-ykt6 enhances SNARE assembly and improves the lysosomal targeting of GCase. 5A) Ykt6 membrane shift analysis of SH-SY5Y cells expressing GFP-ykt6 wt or CS (n=3). 5B) Co-IP of GFP-ykt6 and bet1 in A53T iPSn (n=3). 5C) Ykt6 membrane shift analysis in FTI-treated SH-SY5Y wt a-syn cells or A53T iPSn (5 nM farnesyltransferase inhibitors (FTI) LNK-754 (FTI-1) or LNK-3248 (FTI-2) for 5 days) (n=4). Sec22b was measured to assess specificity. 5D) SEC/western blot of FTI-1 treated SH-SY5Y cells. Quantification is shown below. […]\nFIGS. 14A, 14B, 14C, 14D, 14E, 14F, and 14G. […] 14A) Farnesylation of ykt6 was measured in SH-SY5Y cells expressing GFP-ykt6. […] Biotin was detected with streptavidin-conjugated IRDye800, and normalized to total levels of GFP-ykt6. […] Ykt6 complex levels eluting at ca. 120A were quantified on the right (n=2). […] 14E) Raw quantification data of LAMP2A immunofluorescence intensity of individual cells from H4 cells treated with FTI, +/−ykt6 KD. […] For all quantifications, values are the mean+/−SEM, *p<0.05.\nFor GCase/LAMP2 colocalization, cultures were fixed in 4% PFA in PBS for 20 minutes, then permeabilized in 0.2% saponin in 0.2% glycine buffer as described previously (Mazzulli et al., 2016b). […] Cells were mounted in DAPI-Fluoromount G (Southern Biotech) and analyzed by confocal microscopy as above. […]"}, "[2]": {"system": "DASYN53 mice", "assay": "Behavioral analysis of DASYN53 mice (body weight, Rotarod)", "assay_type": "in vivo", "details": "i.p. 0.9 mg/kg", "text": "FIGS. 8A, 8B, 8C, 8D, 8E, and 8F. FTI treatment enhances GCase activity and reduces pathological a-syn in transgenic mice. 8A) GCase activity in the midbrain of FTI (LNK-754)-treated DASYN53 mice (treated as in FIG. 7) (n=4, veh; n=5, FTI). 8B & 8C) Quantification of soluble and insoluble a-syn from midbrains of FTI-treated DASYN53 mice normalized to total protein (CBB). Syn211 is selective for human (hu) a-syn; C20 and syn303 detect mouse (ms) and hu a-syn, (n=3, nTg+Veh; n=4, DASYN53+veh; n=5 DASYN53+FTI). 8D) Midbrain TH levels were quantified by western blot of FTI-treated DASYN53 mice (n=3). 8E) Body weight of FTI-treated DASYN53 mice (n=9, nTg+Veh; n=7, DASYN53+veh; n=7 DASYN53+FTI). 8F) Rotarod test of FTI-treated DASYN53 mice (n=12, nTg+Veh; n=7, DASYN53+veh; n=7 DASYN53+FTI). Values are the mean+/−SEM. *p<0.05, **p<0.01, and *** p<0.001. Student's t-test, panel A; ANOVA with Tukey's posthoc test, panels B-F.\nBehavioral analysis of DASYN53 mice. These assays were done as previously described (Tsika et al., 2010). […] Balance and motor behavior testing was done at the end of the injection protocol (between days 24-26) and determined using a Rotarod apparatus (Ugo Basile) with acceleration from 4-40 rpm over a 300 second period. Latency to fall was recorded over 4 trials per mouse, and the data were presented as the average of 3 trials (excluding the first trial as a training session). […]"}}}
{"smiles": "C#Cc1cccc(-c2cc(=O)n(C)c3ccc([C@](O)(c4ccc(Cl)cc4)c4cncn4C)cc23)c1", "note": "[LNK-754]", "values": [{"measurement": "levels of LAMP2A and GCase by immunostaining", "setting": "[1]", "value": "elevated the levels of LAMP2A and GCase"}, {"measurement": "reduction in body weight of DASYN53 mice", "setting": "[2]; day 23-24", "value": "rescued"}, {"measurement": "reduction in motor performance (Rotarod) of DASYN53 mice", "setting": "[2]; days 24-26", "value": "rescued"}]}
